From PubChem BioAssay (NCI)
Several values for one entry are separate records, joined by “and”; a condition that tells them apart may be missing. Equal values may be shown once.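 A five-concentration, 48-hour dose response in 96-well plates underlies each endpoint, interpolated linearly between surrounding concentrations. GI50 = concentration required for 50% inhibition of growth. Definition used: TGI = concentration required for complete inhibition of growth.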

What was measured:
Experiment in all cases: inhibition of tumour cell growth, NCI panel, 48 h
786-0 renal = test system: 786-0 renal
A498 renal = test system: A498 renal
A549 NSCLC = test system: A549 NSCLC
ACHN renal = test system: ACHN renal
BT-549 breast = test system: BT-549 breast
CAKI-1 renal = test system: CAKI-1 renal
CCRF-CEM leukemia = test system: CCRF-CEM leukemia
COLO 205 colon = test system: COLO 205 colon
DU-145 prostate = test system: DU-145 prostate
EKVX NSCLC = test system: EKVX NSCLC
HCC-2998 colon = test system: HCC-2998 colon
HCT-116 colon = test system: HCT-116 colon
HCT-15 colon = test system: HCT-15 colon
HL-60(TB) leukemia = test system: HL-60(TB) leukemia
HOP-62 NSCLC = test system: HOP-62 NSCLC
HOP-92 NSCLC = test system: HOP-92 NSCLC
HS 578T breast = test system: HS 578T breast
HT29 colon = test system: HT29 colon
IGROV1 ovarian = test system: IGROV1 ovarian
K-562 leukemia = test system: K-562 leukemia
KM12 colon = test system: KM12 colon
LOX IMVI melanoma = test system: LOX IMVI melanoma
M14 melanoma = test system: M14 melanoma
MALME-3M melanoma = test system: MALME-3M melanoma
MCF7 breast = test system: MCF7 breast
MDA-MB-231 breast = test system: MDA-MB-231 breast
MDA-MB-435 = test system: MDA-MB-435
MDA-MB-468 breast = test system: MDA-MB-468 breast
MOLT-4 leukemia = test system: MOLT-4 leukemia
NCI-H226 lung = test system: NCI-H226 lung
NCI-H23 lung = test system: NCI-H23 lung
NCI-H460 lung = test system: NCI-H460 lung
NCI-H522 lung = test system: NCI-H522 lung
OVCAR-3 ovarian = test system: OVCAR-3 ovarian
OVCAR-4 ovarian = test system: OVCAR-4 ovarian
OVCAR-5 ovarian = test system: OVCAR-5 ovarian
OVCAR-8 ovarian = test system: OVCAR-8 ovarian
PC-3 prostate = test system: PC-3 prostate
RPMI-8226 leukemia = test system: RPMI-8226 leukemia
RXF 393 renal = test system: RXF 393 renal
SF-268 CNS = test system: SF-268 CNS
SF-295 CNS = test system: SF-295 CNS
SF-539 CNS = test system: SF-539 CNS
SK-MEL-2 melanoma = test system: SK-MEL-2 melanoma
SK-MEL-28 melanoma = test system: SK-MEL-28 melanoma
SK-MEL-5 melanoma = test system: SK-MEL-5 melanoma
SK-OV-3 ovarian = test system: SK-OV-3 ovarian
SN12C renal = test system: SN12C renal
SNB-19 CNS = test system: SNB-19 CNS
SNB-75 CNS = test system: SNB-75 CNS
SR leukemia = test system: SR leukemia
SW-620 colon = test system: SW-620 colon
T-47D breast = test system: T-47D breast
TK-10 renal = test system: TK-10 renal
U251 CNS = test system: U251 CNS
UACC-257 melanoma = test system: UACC-257 melanoma
UACC-62 melanoma = test system: UACC-62 melanoma
UO-31 renal = test system: UO-31 renal

SMILES: O=C(/C=C/c1cccc(Br)c1)c1nc2ccccc2n1Cc1ccc(F)cc1
- GI50 (786-0 renal): 11.8 µM
- TGI (786-0 renal): 26.2 µM
- GI50 (A498 renal): 54.3 µM
- TGI (A498 renal): > 100 µM
- GI50 (A549 NSCLC): 14.2 µM
- TGI (A549 NSCLC): 96.3 µM
- GI50 (ACHN renal): 13.3 µM
- TGI (ACHN renal): 40.6 µM
- GI50 (BT-549 breast): 3.87 µM
- TGI (BT-549 breast): 16.5 µM
- GI50 (CAKI-1 renal): 5.72 µM
- TGI (CAKI-1 renal): 32.5 µM
- GI50 (CCRF-CEM leukemia): 3.83 µM
- TGI (CCRF-CEM leukemia): > 100 µM
- GI50 (COLO 205 colon): 16.6 µM
- TGI (COLO 205 colon): 36.2 µM
- GI50 (DU-145 prostate): 12.6 µM
- TGI (DU-145 prostate): 47.6 µM
- GI50 (EKVX NSCLC): 11.5 µM
- TGI (EKVX NSCLC): 28.6 µM
- GI50 (HCC-2998 colon): 11.4 µM
- TGI (HCC-2998 colon): 24.2 µM
- GI50 (HCT-116 colon): 3.79 µM
- TGI (HCT-116 colon): 14.2 µM
- GI50 (HCT-15 colon): 3.65 µM
- TGI (HCT-15 colon): 14.6 µM
- GI50 (HL-60(TB) leukemia): 4.06 µM
- TGI (HL-60(TB) leukemia): 26.7 µM
- GI50 (HOP-62 NSCLC): 14.6 µM
- TGI (HOP-62 NSCLC): 38.8 µM
- GI50 (HOP-92 NSCLC): 3.26 µM
- TGI (HOP-92 NSCLC): 35 µM
- GI50 (HS 578T breast): 9.74 µM
- TGI (HS 578T breast): > 100 µM
- GI50 (HT29 colon): 5.23 µM
- TGI (HT29 colon): 20.6 µM
- GI50 (IGROV1 ovarian): 8.02 µM
- TGI (IGROV1 ovarian): 32.4 µM
- GI50 (K-562 leukemia): 3.75 µM
- TGI (K-562 leukemia): > 100 µM
- GI50 (KM12 colon): 5.52 µM
- TGI (KM12 colon): 22.4 µM
- GI50 (LOX IMVI melanoma): 2.87 µM
- TGI (LOX IMVI melanoma): 10.5 µM
- GI50 (M14 melanoma): 10.6 µM
- TGI (M14 melanoma): 26.1 µM
- GI50 (MALME-3M melanoma): 11.6 µM
- TGI (MALME-3M melanoma): 26 µM
- GI50 (MCF7 breast): 2.83 µM
- TGI (MCF7 breast): 16.7 µM
- GI50 (MDA-MB-231 breast): 6.59 µM
- TGI (MDA-MB-231 breast): 27.2 µM
- GI50 (MDA-MB-435): 3.87 µM
- TGI (MDA-MB-435): 16.2 µM
- GI50 (MDA-MB-468 breast): 5020 nM
- TGI (MDA-MB-468 breast): 18.2 µM
- GI50 (MOLT-4 leukemia): 3.85 µM
- TGI (MOLT-4 leukemia): > 100 µM
- GI50 (NCI-H226 lung): 17 µM
- TGI (NCI-H226 lung): 44 µM
- GI50 (NCI-H23 lung): 9.04 µM
- TGI (NCI-H23 lung): 26 µM
- GI50 (NCI-H460 lung): 4.65 µM
- TGI (NCI-H460 lung): 20 µM
- GI50 (NCI-H522 lung): 10.9 µM
- TGI (NCI-H522 lung): 32.7 µM
- GI50 (OVCAR-3 ovarian): 4.17 µM
- TGI (OVCAR-3 ovarian): 16.9 µM
- GI50 (OVCAR-4 ovarian): 14.5 µM
- TGI (OVCAR-4 ovarian): > 100 µM
- GI50 (OVCAR-5 ovarian): 11.8 µM
- TGI (OVCAR-5 ovarian): 27.7 µM
- GI50 (OVCAR-8 ovarian): 5.05 µM
- TGI (OVCAR-8 ovarian): 27.1 µM
- GI50 (PC-3 prostate): 6.42 µM
- TGI (PC-3 prostate): 34.3 µM
- GI50 (RPMI-8226 leukemia): 4.02 µM
- TGI (RPMI-8226 leukemia): > 100 µM
- GI50 (RXF 393 renal): 4.04 µM
- TGI (RXF 393 renal): 15.9 µM
- GI50 (SF-268 CNS): 16.7 µM
- TGI (SF-268 CNS): > 100 µM
- GI50 (SF-295 CNS): 11.3 µM
- TGI (SF-295 CNS): 27.1 µM
- GI50 (SF-539 CNS): 13.6 µM
- TGI (SF-539 CNS): 26.8 µM
- GI50 (SK-MEL-2 melanoma): 11.6 µM
- TGI (SK-MEL-2 melanoma): 29.6 µM
- GI50 (SK-MEL-28 melanoma): 9.33 µM
- TGI (SK-MEL-28 melanoma): 23.1 µM
- GI50 (SK-MEL-5 melanoma): 10.3 µM
- TGI (SK-MEL-5 melanoma): 23.2 µM
- GI50 (SK-OV-3 ovarian): 62.4 µM
- TGI (SK-OV-3 ovarian): > 100 µM
- GI50 (SN12C renal): 14.9 µM
- TGI (SN12C renal): 40.1 µM
- GI50 (SNB-19 CNS): 11.2 µM
- TGI (SNB-19 CNS): 25.3 µM
- GI50 (SNB-75 CNS): 3.24 µM
- TGI (SNB-75 CNS): 68.1 µM
- GI50 (SR leukemia): 4.73 µM
- TGI (SR leukemia): > 100 µM
- GI50 (SW-620 colon): 3.8 µM
- TGI (SW-620 colon): 14.6 µM
- GI50 (T-47D breast): 5.01 µM
- TGI (T-47D breast): 84.2 µM
- GI50 (TK-10 renal): 17.1 µM
- TGI (TK-10 renal): 57.5 µM
- GI50 (U251 CNS): 5.49 µM
- TGI (U251 CNS): 20.3 µM
- GI50 (UACC-257 melanoma): 10.7 µM
- TGI (UACC-257 melanoma): 31.1 µM
- GI50 (UACC-62 melanoma): 4.67 µM
- TGI (UACC-62 melanoma): 18.2 µM
- GI50 (UO-31 renal): 5.17 µM
- TGI (UO-31 renal): 18.9 µM

SMILES: c1ccc(-c2nc([P+](c3ccccc3)(c3ccccc3)c3ccccc3)c(N3CCOCC3)o2)cc1
- GI50 (MDA-MB-468 breast): 278 nM
- TGI (MDA-MB-468 breast): 1.06 µM

SMILES: CN(C)c1ccc(N=Nc2ccc(Br)cn2)c(O)c1
- GI50 (MDA-MB-468 breast): 469 nM
- TGI (MDA-MB-468 breast): 3.98 µM

SMILES: C/C(=C\C(=N\N=C(N)N)c1ccc(Cl)cc1)c1ccc(Cl)cc1
- GI50 (MDA-MB-468 breast): 125 nM
- TGI (MDA-MB-468 breast): 1.46 µM

SMILES: Cc1cnc(NC2CCOCC2)nc1-n1cnc(C(=O)N[C@H](CN)c2cc(F)cc(Cl)c2)c1
- GI50 (MDA-MB-468 breast): 2670 nM
- TGI (MDA-MB-468 breast): 11.8 µM

SMILES: C=C(C)[C@@H]1CC[C@]2(C)[C@H](CC[C@@H]3[C@@H]([C@@](C)(O)CCC=C(C)C)CC[C@]32C)[C@@]1(C)CCC(=O)N1CCN(C)CC1
- GI50 (MDA-MB-468 breast): 5490 nM
- TGI (MDA-MB-468 breast): 18.5 µM

SMILES: CO[C@H]1C[C@@H]2CC[C@@H](C)[C@@](O)(O2)C(=O)C(=O)N2CCCC[C@H]2C(=O)O[C@H]([C@H](C)C[C@@H]2CC[C@@H](O)[C@H](OC)C2)CC(=O)[C@H](C)C=C(C)[C@@H](O)[C@@H](OC)C(=O)[C@H](C)C[C@H](C)/C=C/C=C/C=C1C
- GI50 (MDA-MB-468 breast): 0.0364 nM and 0.315 nM
- TGI (MDA-MB-468 breast): 13.4 µM

SMILES: C1CCC(C(CC2CCCCN2)C2CCCCC2)CC1 (stereo not drawn)
- GI50 (MDA-MB-468 breast): 1370 nM
- TGI (MDA-MB-468 breast): 2.85 µM

SMILES: CCCCCCCCCOc1c(OC)cc(C2CC(=O)Nc3c2c(C)nn3-c2nc3ccccc3[nH]2)cc1OC (stereo not drawn)
- GI50 (MDA-MB-468 breast): 891 nM
- TGI (MDA-MB-468 breast): 2.09 µM

SMILES: O=C(Cc1ccc(OCc2ccccc2)cc1)NCc1ccc2c(c1)OCO2
- GI50 (MDA-MB-468 breast): 5900 nM
- TGI (MDA-MB-468 breast): > 100 µM

SMILES: Cc1cc(-c2ccc(C3C(C#N)=C(N)Oc4c3c(=O)oc3ccccc43)cc2)cnc1F (stereo not drawn)
- GI50 (MDA-MB-468 breast): 17500 nM
- TGI (MDA-MB-468 breast): 82.5 µM

SMILES: CC1CN=C(c2cccc(-c3ccc(-c4ccccc4)o3)c2)N1 (stereo not drawn)
- GI50 (MDA-MB-468 breast): 1690 nM
- TGI (MDA-MB-468 breast): 3.92 µM
